From the NIST ThermoML archive (doi:10.1021/acs.jced.9b00381)
Numbers after ± are expanded uncertainties.

What was measured:
[1] = Crystal; DSC
[2] = Molar enthalpy of transition or fusion; conditions: Crystal; DSC

Triple point temperature [1]: 424.01 ± 1 K
Molar enthalpy of transition or fusion [2]: 3.23 ± 0.105 kcal/mol
SMILES: Fc1c(I)c(F)c(I)c(F)c1I [1,3,5-trifluoro-2,4,6-triiodobenzene]
